“Also recorded” adds a separate entry of the source. Read-outs that look alike come from different tables or passages of the source. [ ]: non-standard residue; d: D form.
Key:
[1] = system: Aβ, IAPP and TTR amyloidosis / toxic oligomer; experiment: Inhibitory activity summary: inhibition of aggregation and/or binding of toxic oligomer; format: biochemical; conditions: for inhibition of aggregation (FIG. 6): Aβ, IAPP, TTR panels; for inhibitor quality compared with ldas90: FIG. 6 / FIG. 7
Experimental: In addition, FIG. 5 contains ‘control’ designs aimed at reverse engineering the α1 design, which is presented in more detail in Example 3. […] These designs are both linear and cyclic peptides designed to be hairpins.
The “control” designs were tested as general inhibitors against the Amyloid β 1-42 peptide (Aβ) (panel A), the islet amylin polypeptide (IAPP, or amylin, which is implicated in type 2 diabetes) (panel B), and transthyretin (TTR) (panel C) amyloidosis (FIG. 6). […] As described in Example 1, a Thioflavin T (ThT) fluorescence assay was used to monitor Aβ and IAPP aggregation. A Congo Red dye-binding assay was used to monitor TTR fibrillization. For inhibition against Aβ, peptides were co-incubated at 4-fold excess of Aβ at RT in neutral pH buffer containing ThT. […] For inhibition against IAPP, peptides were co-incubated at 8-fold excess of IAPP at 37° C. in neutral pH buffer containing 20 μM ThT. For inhibition against TTR, peptides were co-incubated at 10-fold excess of monomeric TTR.
The data in FIG. 6 were normalized to ThT fluorescence of the negative (uninhibited) control (black squares). Inhibition traces are ordered vertically according to sequence identity to α1 (see Table 1). Sigmoidal fits to data are included. Controls are identical throughout a single panel, and traces for inhibition samples are colored while the uninhibited aggregation profiles are in black.

toxic oligomer = experiment: Binding of toxic oligomer by peptide immobilized to agarose beads (Examples 2 and 3)
Experimental: Peptide designs were immobilized to the Pierce Amino Link resin following the manufacturer's instructions. Peptides were immobilized in a volume of 200 μL of coupling buffer (100 mM sodium phosphate, 150 mM sodium chloride, pH 7.2) and 2 μL cyanoborohydride solution (5 M sodium cyanoborohydride in 1 M NaOH) at a concentration of 358 μM overnight at 4° C. Any residual active sites were blocked with 400 μL quenching buffer (1 M tris hydrochloride, pH 7.4) and 4 μL cyanoborohydride solution for 4 hours at 25° C. Binding experiments were performed from 200 μL amyloid solution (5 μM Aβ or 20 μM TTR (monomer) diluted to the desired concentration in coupling buffer), which was allowed to bind to the peptide-bound agarose beads for 2 h at 25° C. The solution was then collected by centrifugation (flow through, FT). The beads were resuspended in 300 μL coupling buffer, vortexed to obtain an uniform slurry, and the solution was again collected by centrifugation (wash 1, W1). The wash step was performed an additional five times (W2-W6). One final wash step was performed but after resuspending the resin, the solution was allowed to sit for 5 minutes before centrifugation (W7). The resin was next resuspended in 100 μL 2M guanidine hydrochloride, incubated for 5 minutes at room temperature, then collected as before. This was performed twice (E1-E2). The resin was washed again with 300 μL coupling buffer (W8) followed by two elution steps with 6M guanidine hydrochloride (E3-E4). One final wash step was performed with 300 μL coupling buffer (W9). All collected eluents were analyzed by applying triplicate 1 μL spots to nitrocellulose, and then performing standard dot blot analysis as described by Kayed et al. (9) with an anti-TTR (sc-13098, Santa Cruz Biotechnology, Santa Cruz, Calif.) or anti-Aβ (ab39377; Abeam Inc, Cambridge, Mass.) primary antibody diluted 1:1.000 in 5% or 10% nonfat milk, respectively.
Three α-sheet designs are addressed in Example 1, but many more have been evaluated using these same assays and structural methods. FIG. 5 contains a list of other designed α-sheet peptides, both linear and cyclic (specifically peptides #3-5 and #8-9), as well as other control, non-α-sheet designs (peptides #17-18, 20). In addition, FIG. 5 contains ‘control’ designs aimed at reverse engineering the α1 design, which is presented in more detail in Example 3. […] Random primary sequences of amino acids are active in the polypeptides of the invention; these same primary sequences are not active if the polypeptide is provided in an entirely L-amino acid peptide or if the L/D amino acids are randomly distributed within the polypeptide such that they are not alternating (i.e. if they are not polypeptides according to the invention). […] They also all inhibit aggregation and/or bind the toxic oligomer. Some of the polypeptides are insoluble and the solution assay can't be performed, but they do bind the targeted toxic oligomer when they are immobilized to agarose beads to promote solubilization. • Thus, this provides further evidence that the primary amino acid sequence per se is not determining structure and activity, the L/D patterning is. However, the sequence modulates the activity and solubility properties. • Both cyclic and linear designs with different sequences form α-sheet polypeptides, inhibit aggregation, and bind the toxic oligomer. […] (See peptides #1 and #7.) Note, however, that the charges can modulate the level of activity. • Next, consider all 14 designed peptides with the L/D turn template, they are all active. Some have issues with solubility but they all form α-sheet and are active amyloid inhibitors in solution and/or binding of the toxic oligomer. These designs are both linear and cyclic peptides designed to be hairpins. The sequence identity relative to ldas90 (peptide #1) ranges from 9-91% across these 14 designs with an average of 43%. […]

transthyretin (TTR) = target: T1, transthyretin (TTR) (Homo sapiens, UniProt P02766); experiment: TTR fibrillization assay (Congo red binding); format: biochemical; conditions: peptide without regard to TTR; prevents solution TTR assay
T1 construct: purchased Lee Biosolutions, St. Louis Mo; 496-11
Experimental: Aliqouts of transthyretin (TTR) (496-11; Lee Biosolutions, St. Louis Mo.) were made from a 1 mg/mL solution 20 mM ammonium carbonate, pH 8. Aliquots were lyophilized and stored at −18° C. Prior to use, TTR was dissolved to 80 μM (monomer) in acetate buffer (50 mM potassium acetate, 100 mM potassium chloride pH 4.5) and sonicated for 10 minutes. The stock solution was centrifuged before use. Peptide designs were added to stock TTR to a final TTR concentration of 40 μM (monomer) in acetate buffer (pH 4.5) in 500 μL microcentrifuge tubes, which were incubated at 37° C. Periodically, samples were collected from the TTR:peptide mixture by briefly centrifuging, and then carefully pipetting the solution up and down prior to withdrawing a 10 μL sample and diluting it in 190 μL of 10 μM Congo red in an individual well of a 96-well assay plate. Each measurement was performed in triplicate. Absorbance measurements were taken at 477 and 540 nm. Relative Congo red binding was determined using the method of Klunk et al. using the relationship: rCb=(Abs540/25,295)−(Abs477/46,306) (40). All datapoints were normalized to the value recorded for TTR alone pH 4.5 at 48 hrs.
The “control” designs were tested as general inhibitors against the Amyloid β 1-42 peptide (Aβ) (panel A), the islet amylin polypeptide (IAPP, or amylin, which is implicated in type 2 diabetes) (panel B), and transthyretin (TTR) (panel C) amyloidosis (FIG. 6). […] As described in Example 1, a Thioflavin T (ThT) fluorescence assay was used to monitor Aβ and IAPP aggregation. A Congo Red dye-binding assay was used to monitor TTR fibrillization. For inhibition against Aβ, peptides were co-incubated at 4-fold excess of Aβ at RT in neutral pH buffer containing ThT. Note that the results for α1 differ somewhat from what are included in Example 1 because the assay conditions were altered slightly to slow the process down to favor oligomerization of Aβ (rather than fibril elongation) by lowering the temperature to 25° C. […] For inhibition against IAPP, peptides were co-incubated at 8-fold excess of IAPP at 37° C. in neutral pH buffer containing 20 μM ThT. For inhibition against TTR, peptides were co-incubated at 10-fold excess of monomeric TTR.

Substance | Inhibits Aggregation and/or binds oligomer? [1] | binds toxic oligomer when immobilized (toxic oligomer) | Congo red binding by the peptide itself (transthyretin (TTR)) | inhibition of aggregation (FIG. 6) [1] | further results
Ac-MNWESkGEwIRMRYGtmLSNGnM-NH2 (Ac-MNWES[dK]GE[dW]LRMRYG[dT][dM]LSNG[dN]M-NH2; SMILES CSCC[C@H](NC(=O)[C@@H](CC(N)=O)NC(=O)CNC(=O)[C@H](CC(N)=O)NC(=O)[C@H](CO)NC(=O)[C@H](CC(C)C)NC(=O)[C@@H](CCSC)NC(=O)[C@H](NC(=O)CNC(=O)[C@H](Cc1ccc(O)cc1)NC(=O)[C@H](CCCNC(=N)N)NC(=O)[C@H](CCSC)NC(=O)[C@H](CCCNC(=N)N)NC(=O)[C@H](CC(C)C)NC(=O)[C@@H](Cc1c[nH]c2ccccc12)NC(=O)[C@H](CCC(=O)O)NC(=O)CNC(=O)[C@@H](CCCCN)NC(=O)[C@H](CO)NC(=O)[C@H](CCC(=O)O)NC(=O)[C@H](Cc1c[nH]c2ccccc12)NC(=O)[C@H](CC(N)=O)NC(=O)[C@H](CCSC)NC(C)=O)[C@H](C)O)C(N)=O) [peptide #19] | no | does not | bind Congo Red |  | Inhibits Aggregation and/or binds oligomer? ([1]; listed as Control2): inactive
Ac-RGEaWmYiKNNLSETmMsNmWGR-NH2 [peptide #12] | yes |  | bind Congo Red | inhibits aggregation | Inhibits Aggregation and/or binds oligomer? ([1]; listed as Control6): active; binds toxic oligomer when immobilized (toxic oligomer; listed as Control 6): do bind toxic oligomer; binds toxic oligomer when immobilized (toxic oligomer; listed as Control6): binds the toxic oligomer
Ac-RGNwNeSkMNEYSGWmLmLtMGR-NH2 (Ac-RGN[dW]N[dE]S[dK]MNEYSGW[dM]L[dM]L[dT]MGR-NH2; SMILES CSCC[C@H](NC(=O)[C@@H](CCCCN)NC(=O)[C@H](CO)NC(=O)[C@@H](CCC(=O)O)NC(=O)[C@H](CC(N)=O)NC(=O)[C@@H](Cc1c[nH]c2ccccc12)NC(=O)[C@H](CC(N)=O)NC(=O)CNC(=O)[C@H](CCCNC(=N)N)NC(C)=O)C(=O)N[C@@H](CC(N)=O)C(=O)N[C@@H](CCC(=O)O)C(=O)N[C@@H](Cc1ccc(O)cc1)C(=O)N[C@@H](CO)C(=O)NCC(=O)N[C@@H](Cc1c[nH]c2ccccc12)C(=O)N[C@H](CCSC)C(=O)N[C@@H](CC(C)C)C(=O)N[C@H](CCSC)C(=O)N[C@@H](CC(C)C)C(=O)N[C@@H](C(=O)N[C@@H](CCSC)C(=O)NCC(=O)N[C@@H](CCCNC(=N)N)C(N)=O)[C@H](C)O) [peptide #6] | yes | binds the toxic oligomer |  | good inhibitor | inhibitor quality compared with ldas90 [1]: as good as ldas90 (peptide #1) with capped ends; also recorded: better than ldas90 with charged ends (peptide #7); inhibitor quality compared with ldas90 ([1]; listed as Control5): as active; Inhibits Aggregation and/or binds oligomer? ([1]; listed as Control5): active
Ac-AQQiEcItNVWDKEItMyFnVSE-NH2 (Ac-AQQ[dI]E[dC]L[dT]NVWDKEL[dT]M[dY]F[dN]VSE-NH2; not fully specified) [peptide #11] | yes | do bind toxic oligomer | bind Congo Red | weak | Inhibits Aggregation and/or binds oligomer? ([1]; listed as Control 3): active
Ac-RGEMNLSWMNEYSGWTMNLKMGR-NH2 (not fully specified (residues 4, 6, 8, 16, 18, 20); printed as Ac-RGEMNLSWMNEYSGWTMNLKMGR-NH2) [peptide #20, all L-amino acid version of ldas90] | no |  |  |  | Inhibits Aggregation and/or binds oligomer? ([1]; listed as llas90): inactive
Ac-WRPwAiDgMNTBKQRkAsVyLQP-NH2 [peptide #13] | yes | do bind toxic oligomer | bind Congo Red |  | Inhibits Aggregation and/or binds oligomer? ([1]; listed as Control 4): active
RGEmNlSwMNEYSGWtMnLkMGR [peptide #7] | demonstrate activity |  |  |  | 

From US9896487B2, “Amyloidosis-inhibiting polypeptides and their use” (UNIVERSITY OF WASHINGTON THROUGH ITS CENTER FOR …, priority 2013, dated 2018)
